Reference: patent publication US10968462B2, “Plants having increased tolerance to herbicides” (BASF AGRO B.V., priority 2013, dated 2021)
Where a chain is given by its changes, count along the chain named. Values joined by “and” are separate entries in the source; they are usually repeats but may differ in a detail not shown here. Equal values may be shown once. Read-outs that look alike come from different tables or passages of the source.

What was measured:
Assay type in all cases: biochemical, Amaranthus tuberculatum
[1] = molecular target: T1, wild type and amino acid substituted PPO enzyme (PPO2) of SEQ ID NO: 2 (AMARE) (Amaranthus tuberculatus, UniProt Q0NZW9, L397Q/F420M, form not given)
T1 sequence (Q0NZW9 1-534 L397Q/F420M): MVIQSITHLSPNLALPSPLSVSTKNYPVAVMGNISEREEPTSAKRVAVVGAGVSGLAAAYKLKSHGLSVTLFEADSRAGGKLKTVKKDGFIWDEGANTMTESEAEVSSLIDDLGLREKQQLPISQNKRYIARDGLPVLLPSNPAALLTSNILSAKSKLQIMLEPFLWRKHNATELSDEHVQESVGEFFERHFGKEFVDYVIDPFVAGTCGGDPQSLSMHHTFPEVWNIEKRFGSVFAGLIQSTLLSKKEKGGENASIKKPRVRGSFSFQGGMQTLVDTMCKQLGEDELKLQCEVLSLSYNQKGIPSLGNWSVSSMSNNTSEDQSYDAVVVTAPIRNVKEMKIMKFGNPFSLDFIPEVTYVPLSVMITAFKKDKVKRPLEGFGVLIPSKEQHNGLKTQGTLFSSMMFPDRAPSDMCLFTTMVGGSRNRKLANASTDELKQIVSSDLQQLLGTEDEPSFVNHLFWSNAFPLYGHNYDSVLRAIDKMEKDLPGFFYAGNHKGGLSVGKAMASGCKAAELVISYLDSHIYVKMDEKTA

[2] = molecular target: T2, wild type and amino acid substituted PPO enzyme (PPO2) of SEQ ID NO: 2 (AMARE) (Amaranthus tuberculatus, UniProt Q0NZW9, R128Y/F420M, form not given)
T2 sequence (Q0NZW9 1-534 R128Y/F420M): T1 sequence (Q0NZW9 1-534 L397Q/F420M) with R128Y, Q397L

[3] = molecular target: T3, wild type and amino acid substituted PPO enzyme (PPO2) of SEQ ID NO: 2 (AMARE) (Amaranthus tuberculatus, UniProt Q0NZW9, R128I/F420L, form not given)
T3 sequence (Q0NZW9 1-534 R128I/F420L): T1 sequence (Q0NZW9 1-534 L397Q/F420M) with R128I, Q397L, M420L

[4] = molecular target: T4, wild type and amino acid substituted PPO enzyme (PPO2) of SEQ ID NO: 2 (AMARE) (Amaranthus tuberculatus, UniProt Q0NZW9, R128A/F420L, form not given)
T4 sequence (Q0NZW9 1-534 R128A/F420L): T1 sequence (Q0NZW9 1-534 L397Q/F420M) with R128A, Q397L, M420L

Compound | IC50 [1] [nM] | IC50 [2] [nM] | IC50 [3] | IC50 [4] | also measured
CCOCCOC(=O)C(OC)Oc1ccccc1Oc1cc(-n2c(=O)cc(C(F)(F)F)n(C)c2=O)c(F)cc1Cl (stereo not shown) | 933 |  |  |  | 
COC(Oc1ccccc1Oc1cc(-n2c(=O)cc(C(F)(F)F)n(C)c2=O)c(F)cc1Cl)C(=O)OCC(F)F (stereo not shown) | 319 |  |  |  | 
COC(Oc1ccccc1Oc1cc(-n2c(=O)cc(C(F)(F)F)n(C)c2=O)c(F)cc1Cl)C(=O)OCc1ccncc1 (stereo not shown) | 945 |  |  |  | 
COC(Oc1ccccc1Oc1cc(-n2c(=O)cc(C(F)(F)F)n(C)c2=O)c(F)cc1Cl)C(=O)OCC1(C)CC1 (stereo not shown) | 456 |  |  |  | 
COC(Oc1ccccc1Oc1cc(-n2c(=O)cc(C(F)(F)F)n(C)c2=O)c(F)cc1Cl)C(=O)OC1CCCCC1 (stereo not shown) | 642 |  |  |  | 
COC(=O)C(OC)Oc1ccccc1Oc1cc(-n2c(=O)cc(C(F)(F)F)n(C)c2=O)c(F)cc1Cl (stereo not shown) | 359 |  |  |  | 
CCOC(=O)COc1ncccc1Oc1cc(-n2c(=O)cc(C(F)(F)F)n(C)c2=O)c(F)cc1Cl [A.13, ethyl [3-[2-chloro-4-fluoro-5-(1-methyl-6-trifluoromethyl-2,4-dioxo-1,2,3,4-tetrahydropyrimidin-3-yl)phenoxy]-2-pyridyloxy]acetate, reference compound] |  | 89.2 | 201 nM | 277 nM | 
O=C(O)c1cc(Oc2ccc(C(F)(F)F)cc2Cl)ccc1[N+](=O)[O-] [ACIFLUORFEN] |  | ≥ 10000 | ≥ 10000 nM | ≥ 10000 nM | inhibition (%) at 1 × 10−5M [3]: 16%; inhibition (%) at 1 × 10−5M [4]: 20%
C#CCN1C(=O)C(F)(F)Oc2cc(F)c(-n3c(=O)n(C)c(=S)n(C)c3=O)cc21 [BAS 850H] |  |  | 405 nM and 245 nM | 29.6 nM and 15.6 nM | 
C=CCOC(=O)C(C)(C)OC(=O)c1cc(-n2c(=O)cc(C(F)(F)F)n(C)c2=O)ccc1Cl [BUTAFENACIL] |  | 50.4 | 80.2 nM | 91.7 nM | 
CCOC(=O)C(Cl)Cc1cc(-n2nc(C)n(C(F)F)c2=O)c(F)cc1Cl (stereo not shown) [CARFENTRAZONE-ETHYL] |  | 85.2 | 161 nM | 429 nM | 
CCOC(=O)/C(Cl)=C/c1cc(N2C(=O)C3=C(CCCC3)C2=O)ccc1Cl [CINIDON-ETHYL] |  |  |  |  | IC50 ([2]; read-out: IC50): 10800 nM; IC50 ([3]; read-out: IC50): 9510 nM; inhibition (%) at 1 × 10−5M [4]: 48%; IC50 ([4]; read-out: IC50): ≥ 10000 nM
C#CCN1C(=O)COc2cc(F)c(N3C(=O)C4=C(CCCC4)C3=O)cc21 [FLUMIOXAZIN] |  | ≥ 10000 | ≥ 10000 nM | ≥ 10000 nM | inhibition (%) at 1 × 10−5M [2]: −2%; inhibition (%) at 1 × 10−5M [3]: 9%; inhibition (%) at 1 × 10−5M [4]: −8%
CS(=O)(=O)NC(=O)c1cc(Oc2ccc(C(F)(F)F)cc2Cl)ccc1[N+](=O)[O-] [FOMESAFEN] |  | ≥ 10000 | ≥ 10000 nM | 9910 nM | inhibition (%) at 1 × 10−5M [2]: 28%; inhibition (%) at 1 × 10−5M [3]: 38%
CCOC(=O)C(C)OC(=O)c1cc(Oc2ccc(C(F)(F)F)cc2Cl)ccc1[N+](=O)[O-] (stereo not shown) [LACTOFEN] |  | 143 | 130 nM | 68.8 nM | 
CCOc1cc(Oc2ccc(C(F)(F)F)cc2Cl)ccc1[N+](=O)[O-] [OXIFLUORFEN] |  | 1130 | 4210 nM | 558 nM | 
OXADIARGYL |  |  |  |  | IC50 ([2]; read-out: IC50): 36 nM; IC50 ([3]; read-out: IC50): 864 nM; IC50 ([4]; read-out: IC50): 1370 nM
